≈ marks a conversion by molar mass, not a printed value. Where two headings read alike, the source gives them in different places.
Key:
[1] = tested on: Staphylococcus aureus S13E; experiment: microbe, parasite or virus in culture; format: cell-based; settings: Staphylococcus aureus, S13E
Experimental: (§1) The MIC's in Table III were determined by standard agar-dilution assays. The MIC's in Table IV were obtained using conventional brothdilution microtiter tests.

[2] = tested on: Streptococcus pneumoniae Park I; experiment: microbe, parasite or virus in culture; format: cell-based; settings: Streptococcus pneumoniae
Experimental: as §1

[3] = tested on: Escherichia coli EC14; experiment: standard agar-dilution MIC assay; format: cell-based
Experimental: as §1

[4] = tested on: Haemophilus influenzae 76; experiment: standard agar-dilution MIC assay; format: cell-based; settings: Haemophilus influenzae, 76
Experimental: as §1

[5] = tested on: Haemophilus influenzae C.L.; experiment: standard agar-dilution MIC assay; format: cell-based; settings: Haemophilus influenzae
Experimental: as §1

[6] = tested on: Streptococcus Group D X66; experiment: standard agar-dilution MIC assay; format: cell-based; settings: read-out: MIC
Experimental: as §1

[7] = tested on: Staphylococcus aureus X1.1; experiment: standard agar-dilution MIC assay; format: cell-based; settings: Staphylococcus aureus, X1.1
Experimental: as §1

[8] = tested on: Streptococcus pyogenes C203; experiment: standard agar-dilution MIC assay; format: cell-based; settings: Streptococcus pyogenes, C203
Experimental: as §1

[9] = tested on: Klebsiella pneumoniae X68; experiment: standard agar-dilution MIC assay; format: cell-based; settings: Klebsiella pneumoniae, X68
Experimental: as §1

[10] = tested on: Staphylococcus aureus V41; experiment: standard agar-dilution MIC assay; format: cell-based; settings: Staphylococcus aureus, V41
Experimental: as §1

[11] = tested on: Pseudomonas aeruginosa X239; experiment: standard agar-dilution MIC assay; format: cell-based; settings: Pseudomonas aeruginosa, X239
Experimental: as §1

[12] = tested on: Staphylococcus epidermidis EPI1; experiment: standard agar-dilution MIC assay; format: cell-based; settings: Staphylococcus epidermidis, EPI1
Experimental: as §1

[13] = tested on: Streptococcus Group D 9960; experiment: standard agar-dilution MIC assay; format: cell-based; settings: GROUPD9960, read-out: MIC
Experimental: as §1

[14] = tested on: Staphylococcus aureus X400; experiment: standard agar-dilution MIC assay; format: cell-based; settings: Staphylococcus aureus, X400
Experimental: as §1

[15] = tested on: Pasteurella multocida 68C; experiment: broth-dilution microtiter MIC test; format: cell-based; settings: Pasteurella multocida, 68C
Experimental: as §1

[16] = tested on: Mycoplasma gallisepticum 15E; experiment: broth-dilution microtiter MIC test; format: cell-based; settings: Mycoplasmoides gallisepticum, 15E
Experimental: as §1

[17] = tested on: Pasteurella hemolytica 41D; experiment: broth-dilution microtiter MIC test; format: cell-based; settings: Pasteurella, 41D
Experimental: as §1

[18] = tested on: Pasteurella hemolytica 23C; experiment: broth-dilution microtiter MIC test; format: cell-based; settings: Pasteurella, 23C
Experimental: as §1

[19] = tested on: Pasteurella multocida 60A; experiment: broth-dilution microtiter MIC test; format: cell-based; settings: Pasteurella multocida, 60A
Experimental: as §1

[20] = tested on: Pasteurella multocida 17E; experiment: broth-dilution microtiter MIC test; format: cell-based; settings: Pasteurella multocida, 17E
Experimental: as §1

[21] = tested on: Mycoplasma hyorhinis 29E; experiment: broth-dilution microtiter MIC test; format: cell-based; settings: Mycoplasma, 29E
Experimental: as §1

[22] = tested on: Mycoplasma gallisepticum 29C; experiment: broth-dilution microtiter MIC test; format: cell-based; settings: Mycoplasmoides gallisepticum, 29C
Experimental: as §1

[23] = tested on: Pasteurella multocida 22A; experiment: broth-dilution microtiter MIC test; format: cell-based; settings: Pasteurella multocida, 22A
Experimental: as §1

[24] = tested on: Streptococcus sp. 19F; experiment: broth-dilution microtiter MIC test; format: cell-based; settings: Streptococcus, SP.19F
Experimental: as §1

[25] = tested on: Pasteurella hemolytica 22C; experiment: broth-dilution microtiter MIC test; format: cell-based; settings: Pasteurella, 22C
Experimental: as §1

[26] = tested on: Mycoplasma gallisepticum 36H; experiment: broth-dilution microtiter MIC test; format: cell-based; settings: Mycoplasmoides gallisepticum, 36H
Experimental: as §1

[27] = tested on: Staphylococcus aureus 19C; experiment: broth-dilution microtiter MIC test; format: cell-based; settings: Staphylococcus aureus, 19C
Experimental: as §1

[28] = tested on: Bordetella bronchiseptica; experiment: broth-dilution microtiter MIC test; format: cell-based; settings: Bordetella bronchiseptica
Experimental: as §1

[29] = tested on: Pasteurella multocida 40G; experiment: broth-dilution microtiter MIC test; format: cell-based; settings: Pasteurella multocida, 40G
Experimental: as §1

[30] = tested on: Mycoplasma synoviae 40A; experiment: broth-dilution microtiter MIC test; format: cell-based; settings: Mycoplasmopsis synoviae, 40A
Experimental: as §1

[31] = tested on: Streptococcus pyogenes C203; experiment: protection of mice experimentally infected with S. pyogenes C203; format: in vivo
Experimental: The formula 1 compounds have shown in vivo antimicrobial activity against experimentally-induced infections in laboratory animals. When two doses of test compound were administered to mice experimentally infected with S. pyrogenes C203, the activity observed was measured as an ED50 value [effective dose in mg/kg to protect 50% of the test animals: see Warren Wick, et al., J. Bacteriol. 81, 233-235 (1961)].
^a mg/kg × 2; doses given 1 and 4 hours postinfection

[32] = broth-dilution microtiter, read-out: MIC

SMILES | MIC [1] | MIC [4] | MIC [5] | MIC [6] | MIC [7] | MIC [8] | MIC [10] | MIC [12] | MIC [13] | MIC [14] | MIC [15] | MIC [16] | MIC [17] | MIC [18] | MIC [19] | MIC [20] | MIC [21] | MIC [22] | MIC [23] | MIC [24] | further results
CCC1OC(=O)CC(O)C(C)C(OC2OC(C)C(OC3CC(C)(O)C(O)C(C)O3)C(N(C)C)C2O)C(CC=O)CC(C)C(=O)C=CC(C)=CC1COC1OC(C)C(OC(=O)Cc2ccccc2)C(O)C1OC (centres unmarked) [Compound 10, 4'"-O-Phenylacetyl-macrocin] | 1 µg/mL (≈ 0.98 µM) | 16 µg/mL (≈ 15.7 µM) | 32 µg/mL (≈ 31.4 µM) | 1 µg/mL (≈ 0.98 µM) | 1 µg/mL (≈ 0.98 µM) | 0.5 µg/mL (≈ 0.49 µM) | 1 µg/mL (≈ 0.98 µM) | 1 µg/mL (≈ 0.98 µM) | 1 µg/mL (≈ 0.98 µM) | 2 µg/mL (≈ 1.96 µM) | 50 µg/mL (≈ 49 µM) | 12.5 µg/mL (≈ 12.3 µM) | > 50 µg/mL | > 50 µg/mL | > 50 µg/mL | 50 µg/mL (≈ 49 µM) | 3.12 µg/mL (≈ 3.06 µM) | 0.39 µg/mL (≈ 0.382 µM) | > 50 µg/mL | 0.78 µg/mL (≈ 0.765 µM) | MIC [2]: 0.25 µg/mL (≈ 0.245 µM); MIC [3]: > 128 µg/mL; MIC [9]: > 128 µg/mL; MIC [11]: > 128 µg/mL; MIC [25]: > 50 µg/mL; MIC [26]: 12.5 µg/mL (≈ 12.3 µM); MIC [27]: 1.56 µg/mL (≈ 1.53 µM); MIC [28]: > 50 µg/mL; MIC [29]: > 50 µg/mL; MIC [30]: 1.56 µg/mL (≈ 1.53 µM); ED50 ([31]; C203, po): 38.8 mg/kg; ED50 ([31]; C203, sc): 1.9 mg/kg
CCC1OC(=O)CC(O)C(C)C(OC2OC(C)C(O)C(N(C)C)C2OC(C)=O)C(CC=O)CC(C)C(=O)C=CC(C)=CC1COC1OC(C)C(OC(=O)CC(C)C)C(O)C1OC (centres unmarked) [Compound 25, 2'-O-Acetyl-4"-O-isovaleryl-lactenocin] | 2 µg/mL (≈ 2.26 µM) | 16 µg/mL (≈ 18.1 µM) | 32 µg/mL (≈ 36.2 µM) | 2 µg/mL (≈ 2.26 µM) | 2 µg/mL (≈ 2.26 µM) | 2 µg/mL (≈ 2.26 µM) | 2 µg/mL (≈ 2.26 µM) | 2 µg/mL (≈ 2.26 µM) | 2 µg/mL (≈ 2.26 µM) | 2 µg/mL (≈ 2.26 µM) | 25 µg/mL (≈ 28.3 µM) | 50 µg/mL (≈ 56.6 µM) | 25 µg/mL (≈ 28.3 µM) | 25 µg/mL (≈ 28.3 µM) | 25 µg/mL (≈ 28.3 µM) | 25 µg/mL (≈ 28.3 µM) | 1.56 µg/mL (≈ 1.76 µM) | 0.39 µg/mL (≈ 0.441 µM) | 25 µg/mL (≈ 28.3 µM) | 1.56 µg/mL (≈ 1.76 µM) | MIC [2]: 0.5 µg/mL (≈ 0.566 µM); MIC ([3]; agar-dilution, read-out: MIC): > 128 µg/mL; MIC ([9]; agar-dilution, read-out: MIC): > 128 µg/mL; MIC ([11]; agar-dilution, read-out: MIC): > 128 µg/mL; MIC [25]: 50 µg/mL (≈ 56.6 µM); MIC [26]: 25 µg/mL (≈ 28.3 µM); MIC [27]: 6.25 µg/mL (≈ 7.07 µM); MIC [28, 32]: > 50 µg/mL; MIC [29]: 25 µg/mL (≈ 28.3 µM); MIC [30]: 3.12 µg/mL (≈ 3.53 µM)
CCC1OC(=O)CC(O)C(C)C(OC2OC(C)C(O)C(N(C)C)C2OC(C)=O)C(CC=O)CC(C)C(=O)C=CC(C)=CC1COC1OC(C)C(OC(C)=O)C(OC(=O)COc2ccccc2)C1OC (centres unmarked) [Compound 37, 2',4"-Di-O-acetyl-3"-O-phenoxyacetyllactenocin] | 1 µg/mL (≈ 1.02 µM) | 4 µg/mL (≈ 4.1 µM) | 16 µg/mL (≈ 16.4 µM) | 1 µg/mL (≈ 1.02 µM) | 1 µg/mL (≈ 1.02 µM) | 0.5 µg/mL (≈ 0.512 µM) | 1 µg/mL (≈ 1.02 µM) | 1 µg/mL (≈ 1.02 µM) | 2 µg/mL (≈ 2.05 µM) | 2 µg/mL (≈ 2.05 µM) | 12.5 µg/mL (≈ 12.8 µM) | 6.25 µg/mL (≈ 6.4 µM) | 25 µg/mL (≈ 25.6 µM) | 25 µg/mL (≈ 25.6 µM) | 25 µg/mL (≈ 25.6 µM) | 25 µg/mL (≈ 25.6 µM) | 6.25 µg/mL (≈ 6.4 µM) | 0.195 µg/mL (≈ 0.2 µM) | 25 µg/mL (≈ 25.6 µM) | 0.78 µg/mL (≈ 0.799 µM) | MIC ([2]; agar-dilution, read-out: MIC): 0.12 µg/mL (≈ 0.123 µM); MIC ([3]; agar-dilution, read-out: MIC): > 128 µg/mL; MIC ([9]; agar-dilution, read-out: MIC): > 128 µg/mL; MIC ([11]; agar-dilution, read-out: MIC): > 128 µg/mL; MIC [25]: 25 µg/mL (≈ 25.6 µM); MIC [26]: 12.5 µg/mL (≈ 12.8 µM); MIC [27]: 1.56 µg/mL (≈ 1.6 µM); MIC [28, 32]: > 50 µg/mL; MIC [29]: 25 µg/mL (≈ 25.6 µM); MIC [30]: 0.78 µg/mL (≈ 0.799 µM)
